Measured values reported in the METLIN SMRT retention time set (Domingo-Almenara et al. 2019).

Test: gradient 5% acetonitrile 3 min, to 50% in 2 min, to 85% in 15 min, held 3 min, 100 µL/min
Conditions: column: Zorbax Extend-C18 2.1 x 50 mm; eluents: water / acetonitrile, 0.1% formic acid
Summary of the method: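 Retention times come from adduct peaks that were picked computationally and then checked by hand. The standards, pure and pooled in mixtures of ~100 molecules, were run on a Zorbax Extend-C18 column (2.1 × 50 mm, 1.8 μm) at 100 μL/min with water and acetonitrile, each with 0.1% formic acid. Detection was by quadrupole time-of-flight mass spectrometry in positive and negative ionization mode, with a dead volume of 40 μL and a dwell volume of 900 μL.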

RP-LC retention time [s]	SMILES
740	CCN(CC)C(=O)Cn1c(=O)c2cnc(-c3ccc(Cl)cc3)nc2n(CC)c1=O
1220	CC(C)n1c(=O)oc2cc(-c3noc(-c4ccccc4Br)n3)ccc21
749	CNC(=O)c1cc(COc2nnc(Nc3ccc(Cl)cc3)c3ccoc23)ccn1
877	COc1cc(OC)c(NC(=O)N2CCN(c3ccc(=O)n(-c4ccc(C)cc4)n3)CC2)cc1Cl
665	CCCN1CCn2cc(C(=O)NCc3ccc(C(C)C)cc3)nc2C1
745	Cc1cc2c(=O)n(CC(=O)Nc3ccc(Cl)cc3)c3cccnc3n2n1
914	CCOc1ccc(CC(=O)OCn2nnc3ccccc3c2=O)cc1
698	Cc1noc(C)c1Cc1ccc(C(=O)N2CCC3(CCC3O)CC2)o1 (centres undefined)
1200	COc1cccc(S(=O)(=O)N2CCc3nc(-c4ccc(Cl)cc4)ncc3C2)c1
728	Cc1nc(C)c(C(=O)N2CCCCCCN(C)C(=O)[C@@H]3CCC[C@@H]32)s1
888	COc1ccc(N2CCN(c3cc(SCC(=O)NCc4ccccc4OC)ncn3)CC2)cc1
543	CN1CCCC1c1nc(C2CN(C(=O)c3ccnn3C)C2)no1 (centres undefined)
1080	Cc1cc2nc(C(=O)Nc3ccc(F)c(Cl)c3)cc(C)n2n1
818	CC(C)CC(=O)N1CCC(Cc2nnc(-c3ccccc3)o2)CC1
598	Cc1ccc2c(Nc3cccc(C#N)c3)c(C(=O)N3CCCCC3)cnc2n1
1130	CCn1cc(-c2nc(C(=O)Nc3cccc(C)c3)cs2)c2cccnc21
655	Cc1cc(C(=O)NC2CCCC2)nc2cc(-c3cccs3)nn12
702	NC(=O)c1c([N+](=O)[O-])cc(C(F)(F)F)cc1[N+](=O)[O-]
1160	Cn1nccc1-c1cccc(-c2noc(/C=C/c3cccs3)n2)c1
781	CCn1cc(S(=O)(=O)Nc2cccc(C#N)c2)c2cccnc21
603	CC(C)NC[C@H](O)COc1cccc2[nH]ccc12
718	CCC(=O)N1CCc2c(C(=O)NCc3ccc4c(c3)OCO4)cccc21
636	Cc1cc(C(=O)NC2CC2)c2cc(C(C)C)ccc2n1

RP-LC retention time [s]	SMILES
750	O=C(Cn1c(=O)c2nncn2c2ncccc21)N1CCN(c2cccc(Cl)c2)CC1
633	CN1C(=O)C(C)(C)c2cc(S(=O)(=O)N3CCN(c4ccccn4)CC3)ccc21
568	Cc1oc2ncnc(N3CCCCC3)c2c1C(=O)N(CCN(C)C)Cc1ccccc1
1020	COc1ccc(Cc2nnc(SCC(=O)Nc3nc(-c4ccccc4)c(C)s3)o2)cc1
678	O=C(c1ccoc1)N1CCOc2ccc(N3CCOCC3)cc2C1
705	Cc1c(Cl)cccc1Nc1c(-c2ccc(O)cc2)nc2ncccn12
806	CCCC(=O)Nc1nc(-c2ccc3c(c2)NC(=O)C(C)O3)cs1 (centres undefined)
878	Cc1cccc(NC(=O)C2CCCN(S(=O)(=O)c3cn(C(C)C)cn3)C2)c1C (centres undefined)
1060	COc1ccc(-c2nnc(-c3ccc(Cl)c(S(=O)(=O)N4CCCC4)c3)o2)cc1
735	Cc1csc(NC(=O)Cn2nc3c(cc2=O)CCCCC3)n1
584	CCCCS(=O)(=O)N1CC[C@H](CN(C)C(C)=O)[C@H](N(C)C)C1
866	Cc1nnc2ccc(S(=O)(=O)N(Cc3cccc(F)c3)c3ccccc3)cn12
696	CCOc1ccc(-c2cc(=O)n(CCCC(=O)Nc3ccc(-n4cnnn4)cc3)cn2)cc1
622	CCCCN(C)C(=O)c1cc(NC(=O)C(C)(C)C)cnc1N1CCNCC1
826	CCOc1ccc(C(=O)Nc2ccc3c(c2)Sc2ncccc2C(=O)N3C)cc1
655	O=C1NC2CCCCC2C2=NC(CN3CCN(c4ccccc4)CC3)CN12 (centres undefined)
900	O=c1ccc(-c2ccccc2)nn1CCc1nc(-c2ccc3c(c2)OCO3)no1
885	CCOc1ccc(S(=O)(=O)N2CCCN(c3ccc(=O)n(-c4ccc(F)cc4)n3)CC2)cc1
653	Cc1nn(CC(=O)NCCN(C)C2CCCCC2)c(=O)c2c(C)n(-c3ccccc3)nc12
666	CCCCN(C)C(=O)C1CCCCc2nnc(C(C)C)n21 (centres undefined)
691	CCC(C)NC(=O)c1ccc2c(c1)CC(=O)N2CC (centres undefined)
894	COc1ccc(NC(=O)C2CCc3nc(N4CCCCC4)ncc3C2)cc1C(F)(F)F (centres undefined)
900	Cc1cccc(Sc2nccnc2N2CCC(C(=O)N3CCOCC3)CC2)c1

RP-LC retention time [s]	SMILES
775	COc1ccc(CNC(=O)CSc2nnc(-c3ccccc3)n2-n2cccc2)cc1
886	Cc1ccc(NC(=O)NC2CCN(c3ccc(F)cc3)C2=O)cc1F (centres undefined)
1030	CCN1C(=O)COc2cc(-c3noc(C(=O)N4CCN(c5ccccc5)CC4)n3)ccc21
693	CSc1nnc(-c2nn(C)c3c2CN(C(=O)c2cccc(F)c2)CC3)n1C
687	COc1ccc(NC(=O)C2CC(=O)N(c3ccc4c(c3)CCN4C(C)=O)C2)cc1F (centres undefined)
777	CCCN1C(=O)CN(C2CCCCC2)C(=O)C1c1ccc(OC)c(OC)c1 (centres undefined)
699	CCc1ccccc1NC(=O)Cn1c(C(C)C)nc2c(c1=O)CCN(Cc1ccccc1)C2
866	CCn1ccc2sc(C)c(C(=O)NCc3ccc(SC)cc3)c2c1=O
908	O=C(Cn1c(-c2cccs2)cc2ccccc21)N1CCN(C(=O)c2ccco2)CC1
640	CCOC(=O)c1[nH]c(C)c(S(=O)(=O)N2CCN(c3ccccn3)CC2)c1C
582	O=C(Cc1csc(SCc2ccncc2)n1)N1CCN(c2ccccc2)CC1
928	CN(C)S(=O)(=O)c1ccc2c(c1)N(CC(=O)Nc1cccc(F)c1)C(=O)C1CCCCN21 (centres undefined)
1360	Cc1oc(-c2cccc(Cl)c2)nc1Cn1nnc(-c2nc(-c3cccc(F)c3)no2)c1C
909	Cc1nc(N2CCOCC2)c2c(C(=O)Nc3ccc(Br)cc3C)c(C)oc2n1
1080	CCn1cc(-c2ccccc2)cc1C(=O)NC1CCCC1
631	O=C(c1ccc2c(c1)OCO2)N1CCCCC1c1nncn1CC1CC1 (centres undefined)
884	CSc1ncccc1C(=O)Nc1ccc(OCc2nnc(-c3ccccc3)o2)cc1
661	COCCC1CCN(C(=O)CN(C)C(=O)c2n[nH]c3ccccc23)CC1
928	COc1ccc(-c2noc(C3CC(=O)N(c4ccc(Cl)cc4)C3)n2)c(OC)c1 (centres undefined)
570	Cc1cccc2nnc(N3CCCC(C(=O)N4CCN(C5CCCCC5)CC4)C3)n12 (centres undefined)
839	COc1ccc(-c2ncc(C(=O)Nc3ccc(OC)cc3OC)c(-c3ccncc3)n2)cc1
1230	CCCCCc1ccc(/C=C/C(=O)Nc2ccccc2C(=O)O)cc1
953	CCOc1ccc(S(=O)(=O)NCc2ccc3c(c2)CCN3C(=O)c2ccccc2)cc1

RP-LC retention time [s]	SMILES
1170	COC1CN(c2cccc(F)c2)C12CCN(S(=O)(=O)Cc1ccccc1F)CC2 (centres undefined)
1160	CCOc1cccc(-c2noc(Cc3nnc(-c4ccc(C)c(F)c4)o3)n2)c1
835	Cc1ccc(C)c(CNS(=O)(=O)c2cc(-c3[nH]ncc3C(=O)N3CCCC3)oc2C)c1
949	CCCCN(Cc1ccco1)C(=O)C1CCCN(c2ncnc3c2nc2n3CCCCC2)C1 (centres undefined)
764	O=C(Nc1ccc(F)c(Cl)c1)C1CCN(C(=O)NCc2cccs2)CC1
874	Cc1ccccc1CNC(=O)CN1C(=O)C(C)(C)c2ccccc21
652	CCn1c(CNC(=O)C2CCC2)nc2c1CN(C(=O)Cc1ccc(Cl)cc1)CC2
1020	CC1Cc2ccccc2N1S(=O)(=O)CCCOc1ccc2c(c1)OCO2 (centres undefined)
686	CC(C)NC(=O)C1CCN(C(=O)c2ncn3c2COC(c2ccccc2)C3)CC1 (centres undefined)
1280	Cn1nccc1-c1cccc(-c2noc(-c3ccc(Br)cc3)n2)c1
686	COc1ccc(OC)c(S(=O)(=O)NCC2(C)CCOCC2)c1
964	Cc1ccc(Cl)cc1N1CCN(C(=O)C2CCN(S(=O)(=O)c3cn(C(C)C)cn3)CC2)CC1
879	COc1ccc(-c2oc3ccc(OC)cc3c2C(=O)O)cc1
1250	CCCCn1c(=O)c2ccccc2n(Cc2nc(-c3cccc(Cl)c3)no2)c1=O
609	Cc1ncc([N+](=O)[O-])n1CC(C)O (centres undefined)
877	O=C(C1CCCC1)N1CCN(c2cc(-c3ccc(Cl)cc3)[nH]n2)CC1
654	Cn1c(=O)n(C)c2cc(N3CCCCC3)c(NC(=O)NC3CCCC3)cc21
976	Cc1cccc(Oc2nccn3c(=O)n(CC(=O)NC(C)CCc4ccccc4)nc23)c1C (centres undefined)
664	Cc1ccc(N2CC(c3nc(-c4ccc5c(c4)ncn5C)no3)CC2=O)cc1 (centres undefined)
640	CCCNC(=O)C1CCCN(c2nc3ncn(CC(=O)Nc4ccc5c(c4)OCO5)c(=O)c3s2)C1 (centres undefined)
